Data as given in PMC8424217 (The Journal of Biological Chemistry, 2021).
Peptide text beside a SMILES is read from it. * marks the point of attachment. Palmitoyl = CCCCCCCCCCCCCCCC(=O)*

Columns and labels:
Format in all cases: cell-based
hUT [1] = molecular target: T1, hUT (Homo sapiens, UniProt Q9UKP6); assay: EGFR transactivation (EGFR-GFP internalization, confocal microscopy), HEK 293-hUT cells; set-up: expressed in transfected cells; conditions: 30 min; for EGFR internalization: 10^−6 M; for EGFR transactivation after YM254890 (Gq inhibitor): YM254890 100 nM 1 h pretreatment, peptide 10^−6 M
T1 sequence (Q9UKP6 1-389): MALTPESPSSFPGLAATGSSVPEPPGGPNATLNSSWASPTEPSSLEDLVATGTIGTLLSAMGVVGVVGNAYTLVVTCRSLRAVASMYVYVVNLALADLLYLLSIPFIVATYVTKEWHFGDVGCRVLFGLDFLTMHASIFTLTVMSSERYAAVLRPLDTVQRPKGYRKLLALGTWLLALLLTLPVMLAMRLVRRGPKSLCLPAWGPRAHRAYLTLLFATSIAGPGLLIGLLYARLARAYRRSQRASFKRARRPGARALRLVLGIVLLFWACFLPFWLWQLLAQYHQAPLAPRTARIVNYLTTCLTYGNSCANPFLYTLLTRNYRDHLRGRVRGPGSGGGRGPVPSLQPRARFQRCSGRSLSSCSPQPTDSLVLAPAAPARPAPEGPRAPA
Procedure: EGFR internalization, following hUT stimulation with various ligands for 30 min, was visualized using confocal microscopy. The images shown are from representative experiments repeated at least three times.
HEK 293 and HEK 293-hUT cells, transiently transfected with cDNA encoding fluorescently labeled EGFR (EGFR-GFP) (2 μg), were plated onto 35-mm glass-bottomed culture dishes (MatTek Corp). Following stimulation, cells were washed once with PBS and fixed in 4% paraformaldehyde for 15 min. To study the involvement of Gq in EGFR internalization, cells were treated with YM254890 (100 nM) for 1h prior peptide treatments. […] EGFR-GFP internalization was visualized using a combination of excitation (488 nm) and emission filters (499 and 520 nm).

hUT [2] = molecular target: T1, hUT; assay: Gi activation, BRET biosensor, HEK 293-hUT cells; set-up: expressed in transfected cells; conditions: for EC50: HEK 293-hUT, BRET, mean ± SEM, n = 3–5, read-out: Gi activation pEC50 (converted)
CHO-K1 cells = assay: ERK1/2 phosphorylation, western blot, CHO-K1 cells not expressing hUT; conditions: CHO-K1, 5 min; hUII 10^−7 M, pepducins 10^−5 M; n = 3
hUT [3] = molecular target: T1, hUT; assay: Gq activation, BRET biosensor, HEK 293-hUT cells; set-up: expressed in transfected cells; conditions: mean ± SEM; for EC50: n = 3–5, read-out: Gq activation pEC50 (converted)
Procedure: (§1) Figure 6 Signaling signature of hUT-pepducins following hUT receptor activation. […] Each curve represents mean ± SEM of at least three independent concentration-response experiments performed in triplicate.
(§2) HEK 293-hUT cells were grown in DMEM culture media supplemented with 10% foetal bovine serum, HEPES, sodium pyruvate, and G418 (200 μg mL^−1). Passages were performed when cells reached 80% of confluency. Cells were initially plated in 96-well plates at a density of 10,000 cells/well. The following day, the medium is replaced with DMEM culture media supplemented with 2.5% foetal bovine serum (FBS), and 12 h later, cells were transiently transfected with 25 ng/well of a Gq-polycistronic, 25 ng/well of a G12-polycistronic BRET sensor, 25 ng/well of a G13-polycistronic BRET sensor, 2.5 ng/well pIRESB RLucII-ERK-NLS-GFP BRET sensor, 2.5 ng β-arrestin 1-polycistronic BRET sensor, or 2.5 ng β-arrestin 2-polycistronic BRET sensor using Lipofectamine2000 at a ratio of 3:1 (Lipofectamine/plasmid DNA) in serum-free Opti-MEM ([44], [81]). Sixteen hours posttransfection, medium was replaced with DMEM supplemented with 10% FBS, HEPES, sodium pyruvate and G418 (200 μg mL^−1) and cell growth was resumed for another 16 h. Cells were washed with 150 μl PBS solution supplemented with 0.1% of glucose and then incubated with 80 μl of this solution for 2 h. Then, to evaluate Gq and G12 activation, 10 μl of a 1/20 dilution (diluted before use) of coelenterazine 400A (stock at 1 mM in ethanol) in Kreb's buffer and 10 μl of the 10× appropriate concentration of peptide were added, and the luminescence was evaluated with an Infinite M1000 PRO. […] Readings were performed after 5 min using an Infinite M1000 PRO. Filters were set at 410 nm and 515 nm for detecting the Renilla luciferase II (RlucII, donor) and green fluorescent protein 10 (GFP10, acceptor) light emission, respectively. BRET ratio was determined by calculating the ratio of the light emitted by GFP10 over the light emitted by the RlucII.

hUT [4] = molecular target: T1, hUT; assay: G13 activation, BRET biosensor, HEK 293-hUT cells; set-up: expressed in transfected cells; conditions: for EC50: HEK 293-hUT, BRET, mean ± SEM, n = 3–5, read-out: G13 activation pEC50 (converted)
Procedure: as §1, §2

hUT [5] = molecular target: T1, hUT; assay: ERK1/2 phosphorylation, western blot, HEK 293-hUT cells; set-up: expressed in transfected cells; host or cells: CHO-K1 cells stably expressing hUT (gift from H. Vaudry and C. Dubessy, University of Rouen); conditions: for time of maximal ERK1/2 phosphorylation (for [Trp^1, Leu^2]hUT-Pep3: time to reach efficacy similar to hUII) / effect of YM254890 (Gq inhibitor) on ERK1/2 phosphorylation induced by the peptide: pepducins 10^−5 M; for time of maximal ERK1/2 phosphorylation (for [Trp^1, Leu^2]hUT-Pep3: time to reach efficacy similar to hUII): hUII 10^−7 M; for effect of YM254890 (Gq inhibitor) on ERK1/2 phosphorylation induced by the peptide: YM254890 100 nM 1 h pretreatment, hUT-Pep2 at 5 min, [Trp^1, Leu^2]hUT-Pep3 at 5 and 10 min, p < 0.05
Procedure: Curves represent mean ± SEM of three independent kinetic experiments performed in triplicate.
CHO cells stably expressing hUT (CHO-hUT; gift from Drs H. Vaudry et C. Dubessy, University of Rouen, France) were grown in 12-well plates to 70–80% confluence and starved for 6 h in a serum-free medium. […] Briefly, HEK 293-hUT cells, grown in 12-well plates to 70–80% confluence, were starved for 6 h in a serum-free medium. […] Cells were then rinsed twice with ice-cold PBS and homogenized in 0.5 ml of lysis buffer (20 mM Tris, 150 mM NaCl, 1 mM EDTA, 1 mM EGTA, 1% Triton X-100, 2.5 mM sodium pyrophosphate, 1 mM β-glycerolphosphate, 1 mM Na3VO4, 1 μg mL^−1 leupeptin, 1 mM PMSF, 1 mM DTT) at 4 °C. Insoluble material was removed by centrifugation at 12,000 rpm for 30 min. The extract was treated with Laemmli sample buffer and heated for 5 min at 95 °C. Aliquots were assayed for protein concentration (BioRad) and an equal amount of total protein was subjected to 12% SDS–PAGE, followed by transfer to a nitrocellulose membrane. The membrane was blocked and then probed with primary antibody (phospho-p44/42 MAPK) at the optimal dilution (1/2000) with gentle agitation overnight at 4 °C. After washing with TTBS, membranes were then incubated with secondary antibody, conjugated with horseradish peroxidase (anti-rabbit HRP) diluted in TBST containing 5% skim milk (w/v) for 1 h at room temperature. Immunoreactive species were visualized by enhanced chemiluminescence using X-ray film and Thermo Scientific SuperSignal chemiluminescent substrates according to the manufacturer's instructions. Films were digitized and the intensity of the immunoreactive bands determined using Quantity One software from Bio-Rad.

[6] = percentage of the activation induced by hUII (10^−6 M), n = 3–5

Compound | EGFR internalization (hUT [1]) | Emax at 1 µM (hUT [2]) [%] | ERK1/2 phosphorylation in absence of receptor (CHO-K1 cells) | Emax at 1 µM (hUT [3]; [6]) [%] | Emax at 1 µM (hUT [4]) [%] | time of maximal ERK1/2 phosphorylation (for [Trp^1, Leu^2]hUT-Pep3: time to reach efficacy similar to hUII) (hUT [5]) [min] | EGFR transactivation after YM254890 (Gq inhibitor) (hUT [1]) | Emax (hUT [2]) [%] | EC50 (hUT [2]) [nM] | EC50 (hUT [3]) [nM] | Emax (hUT [3]; [6]) [%] | Emax (hUT [4]) [%] | EC50 (hUT [4]) [nM] | effect of YM254890 (Gq inhibitor) on ERK1/2 phosphorylation induced by the peptide (hUT [5]) | duration of ERK1/2 activation in presence of YM254890 (hUT [5]; YM254890 100 nM, 0-20 min)
CC(C)[C@H](NC(=O)[C@@H]1CSSC[C@H](NC(=O)[C@H](CC(=O)O)NC(=O)[C@@H]2CCCN2C(=O)[C@@H](NC(=O)[C@@H](N)CCC(=O)O)[C@@H](C)O)C(=O)N[C@@H](Cc2ccccc2)C(=O)N[C@@H](Cc2c[nH]c3ccccc23)C(=O)N[C@@H](CCCCN)C(=O)N[C@@H](Cc2ccc(O)cc2)C(=O)N1)C(=O)O [hUII, urotensin II, reference compound] | resulted in EGFR internalization | 93 ± 2 | neither hUII nor hUT-derived pepducins were able to induce ERK1/2 phosphorylation | 109 ± 5 | 106 ± 5 | 5 |  |  |  |  |  |  |  |  | 
CCCCCCCCCCCCCCCC(=O)N[C@@H](Cc1c[nH]c2ccccc12)C(=O)N[C@@H](CC(C)C)C(=O)N[C@@H](CO)C(=O)N[C@@H](CCC(N)=O)C(=O)N[C@@H](CCCNC(=N)N)C(=O)N[C@@H](C)C(=O)N[C@@H](CO)C(=O)N[C@@H](Cc1ccccc1)C(=O)N[C@@H](CCCCN)C(=O)N[C@@H](CCCNC(=N)N)C(=O)N[C@@H](C)C(=O)N[C@@H](CCCNC(=N)N)C(=O)N[C@@H](CCCNC(=N)N)C(N)=O [[Trp^1, Leu^2]hUT-Pep3] (Palmitoyl-WLSQRASFKRARR-NH2) | significant internalization of EGFR-GFP |  | neither hUII nor hUT-derived pepducins were able to induce ERK1/2 phosphorylation |  |  | 10 | almost completely abolished | 97 ± 2 | 0.0407 | 4.57 | 29 ± 4 | 185 ± 11 | 309 | modest, but significant, inhibitory effect | this activation is maintained and did not decrease over the studied period of time
CCCCCCCCCCCCCCCC(=O)N[C@@H](CCCNC(=N)N)C(=O)N1CCC[C@H]1C(=O)N[C@@H](CC(C)C)C(=O)N[C@@H](CC(=O)O)C(=O)N[C@H](C(=O)N[C@H](C(=O)N[C@@H](CCC(N)=O)C(=O)N[C@@H](CCCNC(=N)N)C(=O)N1CCC[C@H]1C(=O)N[C@@H](CCCCN)C(=O)NCC(=O)N[C@@H](Cc1ccc(O)cc1)C(N)=O)C(C)C)[C@@H](C)O [hUT-Pep2] (Palmitoyl-RPLDTVQRPKGY-NH2) | significant internalization of EGFR-GFP |  | neither hUII nor hUT-derived pepducins were able to induce ERK1/2 phosphorylation |  |  | 5 | almost completely abolished | 96 ± 2 | 0.0813 | 49 | ~9 | 154 ± 10 | 468 | modest, but significant, inhibitory effect | 
